# Data taken from patent US4764509A, “Pharmaceutical compositions containing di-gold phosphine” (SmithKline Beckman Corporation, priority 1987, dated 1988).
# Several values for one entry are separate records, joined by “and”; a condition that tells them apart may be missing. Equal values may be shown once.
# How the values were obtained:
# [1] = Struck et al. 1966; cited from earlier work
# [2] = maximally tolerated dose in mice, ip qDx5 regimen (P388 experiment); assay type: in vivo, mouse (B62DF female); conditions: B62DF female mice
# Protocol: 10^6 P388 leukemia cells are inoculated ip in B6D2F1 mice. Twenty-four hours later, if the tumor inoculum proves to be free of bacterial contamination (as determined by 24 hours incubation in thioglycollate broth), animals are randomized into groups of 6 and housed in shoebox cages. The compound to be evaluated is dissolved in a minimal volume of either N,N-dimethylacetamide (DMA) or 95% ethanol (depending upon solubility). An equal volume of saline is added; if the drug comes out of solution an equal volume of polyethoxylated castor oil is added and then saline qs to a concentration such that the desired dose is delivered in 0.5 ml. The final concentration of DMA, ethanol and polyethoxylated castor oil is 10 percent. Dilutions for lower doses are made with saline so there is a decreasing proportion of organic solvents in the vehicle with decreasing dosage These vehicles provide soluble formulations (or suspensions). Formulations are prepared immediately prior to injection. The compound is administered ip on Days 1 through 5 (i.e. treatment is initiated 24 hrs after tumor inoculation). Each experiment includes three groups of 6 animals as untreated controls and animals treated with a positive control, cisplatin, at two dose levels. […] Animals are monitored daily for mortality and experiments are terminated after 45 days. […]
# P388 leukemia = experiment: in vivo ip P388 lymphocytic leukemia mouse model (increase in lifespan); parameters: species or system mouse (B6D2F1); conditions: ip Days 1 through 5; figures separated by slashes are from separate experiments; ≥25 percent ILS considered active
# Excerpt: P388 lymphocytic leukemia is currently the most widely used animal tumor model for screening for antitumor agents and for detailed evaluation of active compounds. This tumor system is widely accepted as an antitumor agent screening tool because it is sensitive to virtually all of the clinically active antineoplastic agents; quantitative and reproducible; amenable for large-scale screening; and predictive for activity in other animal tumor models.
# 10^6 P388 leukemia cells are inoculated ip in B6D2F1 mice. Twenty-four hours later, if the tumor inoculum proves to be free of bacterial contamination (as determined by 24 hours incubation in thioglycollate broth), animals are randomized into groups of 6 and housed in shoebox cages. The compound to be evaluated is dissolved in a minimal volume of either N,N-dimethylacetamide (DMA) or 95% ethanol (depending upon solubility). An equal volume of saline is added; if the drug comes out of solution an equal volume of polyethoxylated castor oil is added and then saline qs to a concentration such that the desired dose is delivered in 0.5 ml. The final concentration of DMA, ethanol and polyethoxylated castor oil is 10 percent. […] Animals are monitored daily for mortality and experiments are terminated after 45 days. […]
# [3] = maximally tolerated dose in mice, ip qD x 10 regimen (B16 experiment); assay type: in vivo, mouse (B6D2F1); conditions: B6D2F1 mice, ip qD × 10 regimen
# Protocol: (§1) In this system, groups of eight B6D2F1 mice are inoculated ip with 0.5 ml of a 10% (w:v) brei of B16 melanoma prepared from pooled sc tumors excised at 14-21 days from […] donor mice. Daily treatment is begun 24 hours after tumor implantation and is continued daily for ten (10) days. The route of drug administration is ip. The mice are monitored daily for survival for sixty (60) days. Antitumor activity is assessed by prolongation of median survival time. An ILS of ≥25% indicates activity in this tumor model.
# ^(b) maximally tolerated dose for B6D2F1 mice on a ip qD ×
# B16 melanoma = experiment: in vivo ip B16 melanoma assay (increase in lifespan); parameters: species or system mouse (B6D2F1); conditions: ip daily for ten (10) days; ILS of ≥25% indicates activity
# Protocol: as §1
Compound,cytotoxic activity (in words) [1],MTD (maximally tolerated dose) [2] [mg/kg],"ILS (max): maximum increase in lifespan, mice bearing ip P388 leukemia (P388 leukemia)",MTD (maximally tolerated dose) [3] [mg/kg],"ILS: maximum increase in lifespan, mice bearing ip B16 melanoma (B16 melanoma) [%]"
"c1ccc(P(CCP(c2ccccc2)c2ccccc2)c2ccccc2)cc1 [1,2-bis(diphenylphosphino)ethane]",cytotoxic activity,–,–,–,–
"Dichlorobis[1,2-bis(diethylphosphino)ethane]digold [Compound 2]",–,16,29%,–,–
"Dichlorobis[1,2-bis(diphenylphosphino)ethane]digold [Compound 1]",–,8,81% and 91% and 55%,4,35
